In US8975401B2, “Quinazoline based EGFR inhibitors containing a zinc binding moiety” (Curis, Inc., priority 2006, dated 2015):

Assay: Pharmacokinetic study in mice (plasma, lung, colon)
Details: salt in 30% CAPTISOL
Description: Plasma samples were prepared by protein precipitation.
Samples were compared to standards made in plasma. These standards were prepared by serial dilution. An internal standard was added into the plasma with standard.
Tissues were homogenized in 0.8 ml water.

Substance: Citric Acid
- IV Tissue: Low
